Results from ChEMBL document CHEMBL5385872, “Design and syntheses of a bimolecular STING agonist based on the covalent STING antagonist” (Eur J Med Chem, 2023).
Calls of active or inactive are those of the source. The calls are words filed in the database; no cut-off is given here.

Key:
THP-1 = assay: Effect on STING level in human THP1 cells at 2.5 to 20 uM incubated for 8 hrs by Western blot analysis; format: functional, cell-based; settings: dose 2.5-20 µM
HEK-293T = assay: Cytotoxicity against STING-deficient human 293T cells assessed as cell viability measured after 72 hrs by MTT assay; format: functional, cell-based
[1] = target: Stimulator of interferon genes protein (Homo sapiens) (UniProt Q86WV6); assay: Induction of wild type STING mediated TBK1 phosphorylation in human HeLa cells transfected with wild type STING at 10 uM measured after 5 hr by Western blot analysis; format: cell-based; settings: filed as agonist
[2] = target: Stimulator of interferon genes protein (Homo sapiens) (UniProt Q86WV6); assay: Agonist activity at STING in human HT-1080 cells assessed as increase in ADU-S100-induced TBK1 phosphorylation at 2.5 to 20 uM measured after 5 hrs by Western blot analysis; format: cell-based; settings: filed as agonist, dose 2.5-20 µM
[3] = target: T1, Stimulator of interferon genes protein (Mus musculus) (UniProt Q3TBT3); assay: Induction of STING dimerization in mouse embryonic fibroblast cells at 2.5 to 20 uM measured after 5 hrs by Western blot analysis; format: cell-based; settings: MEF, filed as agonist, dose 2.5-20 µM
T1 sequence (whole entry): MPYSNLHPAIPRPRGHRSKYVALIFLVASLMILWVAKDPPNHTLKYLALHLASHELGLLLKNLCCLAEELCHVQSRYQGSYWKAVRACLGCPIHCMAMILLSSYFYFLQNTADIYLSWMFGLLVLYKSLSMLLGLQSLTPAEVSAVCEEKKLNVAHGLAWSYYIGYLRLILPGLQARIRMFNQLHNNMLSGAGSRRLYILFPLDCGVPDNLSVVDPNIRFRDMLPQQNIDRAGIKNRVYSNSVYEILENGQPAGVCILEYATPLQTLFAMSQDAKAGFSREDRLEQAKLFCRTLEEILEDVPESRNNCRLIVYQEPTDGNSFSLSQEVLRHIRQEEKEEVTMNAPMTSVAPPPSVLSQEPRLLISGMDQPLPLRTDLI

HT-1080 [4] = assay: Synergistic increase in […]-induced TBK1 phosphorylation in human HT-1080 cells by Western blot analysis; format: functional, cell-based
[5] = target: Stimulator of interferon genes protein (Homo sapiens) (UniProt Q86WV6); assay: Induction of STING-dependent gene expression in human HT-1080 cells assessed as increase in […] induced IFNbeta mRNA expression at 20 uM incubated for 8 hrs by qRT-PCR analysis; format: cell-based; settings: filed as agonist
[6] = target: T1, Stimulator of interferon genes protein (Mus musculus); assay: Agonist activity at STING in mouse embryonic fibroblast cells assessed as increase in TBK1 phosphorylation at 2.5 to 20 uM measured after 5 hrs by Western blot analysis; format: cell-based; settings: MEF, filed as agonist, dose 2.5-20 µM
[7] = test system: Stimulator of interferon genes protein (Homo sapiens), Q86WV6 [C88S,C91S]; assay: Induction of oligomerization of STING C88S/C91S (unknown origin) double mutant in human HeLa cells transfected with wild type STING assessed as intracellular puncta formation at 10 uM measured after 1 hr by DAPI staining based immunofluorescence microscopy; format: cell-based; settings: filed as agonist
RAW264.7 [8] = assay: Synergistic increase in HSV infection-induced TBK1 phosphorylation in mouse RAW264.7 cells by Western blot analysis; format: functional, cell-based
[9] = target: Stimulator of interferon genes protein (Homo sapiens) (UniProt Q86WV6); assay: Induction of STING dimerization in human THP1 cells at 2.5 to 20 uM measured after 5 hrs by Western blot analysis; format: cell-based; settings: THP-1, filed as agonist, dose 2.5-20 µM
[10] = test system: Stimulator of interferon genes protein (Homo sapiens), Q86WV6 [C148A]; assay: Induction of STING C148A mutant (unknown origin) mediated TBK1 phosphorylation in human HeLa cells transfected with STING C148A mutant at 10 uM measured after 5 hr by Western blot analysis; format: cell-based; settings: filed as agonist
[11] = Antiviral activity against rhesus rotavirus assessed as inhibition of replication by qRT-PCR analysis; format: functional, Simian rotavirus A strain RRV
RAW264.7 [12] = assay: Cytotoxicity against mouse RAW264.7 cells assessed as cell viability measured after 72 hrs by MTT assay; format: functional, cell-based; settings: RAW264.7, 72 h
[13] = target: Stimulator of interferon genes protein (Homo sapiens) (UniProt Q86WV6); assay: Agonist activity at STING in human HT-1080 cells assessed as increase in TBK1 phosphorylation at 2.5 to 20 uM measured after 5 hrs by Western blot analysis; format: cell-based; settings: filed as agonist, dose 2.5-20 µM
[14] = target: T1, Stimulator of interferon genes protein (Mus musculus); assay: Induction of STING dimerization in mouse BMDM cells at 2.5 to 20 uM measured after 5 hrs by Western blot analysis; format: cell-based; settings: filed as agonist, dose 2.5-20 µM
[15] = target: Stimulator of interferon genes protein (Homo sapiens) (UniProt Q86WV6); assay: Agonist activity at STING in human HT-1080 cells assessed as increase in diABZI-induced TBK1 phosphorylation at 2.5 to 20 uM measured after 5 hrs by Western blot analysis; format: cell-based; settings: filed as agonist, dose 2.5-20 µM
[16] = target: Stimulator of interferon genes protein (Homo sapiens) (UniProt Q86WV6); assay: Induction of wild type STING dimerization in human HeLa cells transfected with wild type STING at 10 uM measured after 5 hr by Western blot analysis; format: cell-based; settings: filed as agonist
BMDM = assay: Effect on STING level in mouse BMDM cells at 2.5 to 20 uM incubated for 8 hrs by Western blot analysis; format: functional, cell-based; settings: dose 2.5-20 µM
[17] = test system: Herpes simplex virus unknown type; assay: Antiviral activity against HSV infected in human HT-1080 cells assessed as reduction viral protein ICP0 expression at 2.5 to 20 uM pretreated for 1 hr followed by infection measured after 18 hrs by Western blot analysis; format: functional, cell-based; settings: dose 2.5-20 µM, time 19.0 hrs
HT-1080 [18] = assay: Cytotoxicity against human HT-1080 cells assessed as cell viability measured after 72 hrs by MTT assay; format: functional, cell-based; settings: HT-1080, 72 h
HT-1080 [19] = assay: Effect on TBK1 phosphorylation in STING - knockout human HT1080 cells at 20 uM measured after 5 hrs by Western blot analysis; format: functional, cell-based
[20] = target: Stimulator of interferon genes protein (Homo sapiens) (UniProt Q86WV6); assay: Induction of STING-dependent gene expression in human HT-1080 cells assessed as increase in ADU-S100 induced IFNbeta mRNA expression at 20 uM incubated for 8 hrs by qRT-PCR analysis; format: cell-based; settings: filed as agonist
RAW264.7 [21] = assay: Synergistic increase in […]-induced TBK1 phosphorylation in mouse RAW264.7 cells by Western blot analysis; format: functional, cell-based
[22] = target: Stimulator of interferon genes protein (Homo sapiens) (UniProt Q86WV6); assay: Induction of STING dimerization in human HT-1080 cells at 2.5 to 20 uM measured after 5 hrs by Western blot analysis; format: cell-based; settings: filed as agonist, dose 2.5-20 µM
[23] = target: Stimulator of interferon genes protein (Homo sapiens) (UniProt Q86WV6); assay: Induction of STING-dependent gene expression in human THP1 cells assessed as TNFalpha mRNA expression at 2.5 to 20 uM incubated for 8 hrs by qRT-PCR analysis; format: cell-based; settings: THP-1, filed as agonist, dose 2.5-20 µM
SARS-CoV-2 = assay: Antiviral activity against SARS-CoV-2 assessed as inhibition of replication by qRT-PCR analysis; format: functional, organism-based; settings: Severe acute respiratory syndrome coronavirus 2
[24] = target: Stimulator of interferon genes protein (Homo sapiens) (UniProt Q86WV6); assay: Induction of STING-dependent gene expression in human HT-1080 cells assessed as increase in diABZI induced IFNbeta mRNA expression at 20 uM incubated for 8 hrs by qRT-PCR analysis; format: cell-based; settings: filed as agonist
[25] = target: Stimulator of interferon genes protein (Homo sapiens) (UniProt Q86WV6); assay: Induction of STING-dependent gene expression in human HT-1080 cells assessed as IFNbeta mRNA expression at 20 uM incubated for 8 hrs by qRT-PCR analysis; format: cell-based; settings: filed as agonist
Mus musculus = assay: Induction of immune-activation effect in wild type female BALB/c mouse assessed as increase in serum IFNbeta level at 15 to 30 mg/kg, ip measured after 24 to 48 hrs by ELISA relative to control; format: functional, organism-based; settings: dose 15-30 mg/kg, time 24-48 hrs

Stimulator of interferon genes protein (Homo sapiens), sequence (Q86WV6 whole entry): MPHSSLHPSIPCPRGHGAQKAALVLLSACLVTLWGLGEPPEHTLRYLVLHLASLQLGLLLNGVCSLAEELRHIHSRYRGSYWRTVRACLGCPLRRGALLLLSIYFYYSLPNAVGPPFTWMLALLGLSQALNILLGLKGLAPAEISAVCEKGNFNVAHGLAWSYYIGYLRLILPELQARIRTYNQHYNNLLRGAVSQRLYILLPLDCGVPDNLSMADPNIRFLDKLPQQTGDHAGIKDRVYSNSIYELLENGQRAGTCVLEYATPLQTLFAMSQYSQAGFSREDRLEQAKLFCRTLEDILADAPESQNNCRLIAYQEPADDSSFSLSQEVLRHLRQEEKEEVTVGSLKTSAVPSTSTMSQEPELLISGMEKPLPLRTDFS
Stimulator of interferon genes protein (Homo sapiens), Q86WV6 [C88S,C91S], sequence (Q86WV6 whole entry C88S/C91S): as the sequence (Q86WV6 whole entry) above, with C88S, C91S counted along it
Stimulator of interferon genes protein (Homo sapiens), Q86WV6 [C148A], sequence (Q86WV6 whole entry C148A): as the sequence (Q86WV6 whole entry) above, with C148A counted along it

## O=C(NCCCCCNC(=O)c1ccc([N+](=O)[O-])o1)c1ccc([N+](=O)[O-])o1
THP-1
  Activity: inactive
HEK-293T
  IC50: 22.4 µM
[1]
  Activity: Active
[2]
  Activity: Active
[3]
  Activity: Active
HT-1080 [4]
  Activity: Active
[5]
  Activity: Active
[6]
  Activity: Active
[7]
  Activity: Active
RAW264.7 [8]
  Activity: Active
[9]
  Activity: Active
[10]
  Activity: Active
[11]
  EC50: 6.8 µM
RAW264.7 [12]
  IC50: 8.69 µM
[13]
  Activity: Active
[14]
  Activity: Active
[15]
  Activity: Active
[16]
  Activity: Active
BMDM
  Activity: inactive
[17]
  Activity: Active
HT-1080 [18]
  IC50: 9.31 µM
HT-1080 [19]
  Activity: inactive
[20]
  Activity: Active
RAW264.7 [21]
  Activity: Active
[22]
  Activity: Active
[23]
  Activity: Active
SARS-CoV-2
  EC50: 10.7 µM
[24]
  Activity: Active
[25]
  Activity: Active
Mus musculus
  Activity: Active
